From patent US20240417410A1, “TRICYCLIC COMPOUNDS FOR THE TREATMENT OF CANCER” (Hoffmann-La Roche Inc., priority 2023, published 2024)
Like-named read-outs stand apart in the source and are kept apart here.

What was measured:
Experiment in all cases: Cell proliferation, CTG 3D, 7 d
Assay type in all cases: cell-based
[1] = system: PA-1; conditions: Homo sapiens; PA-1, NRAS (p.G12D)
Experimental: (§1) On Day-1, cells were plated in 384-well round-bottom ultra-low adhesion plates (cat. Corning 3830, with cell density adjusted according to Table 3. The assay plate was then centrifuged at 1000 rpm for 1 minute to ensure even distribution of cells. The plate was incubated at 37° C. in a 5% CO2 atmosphere (It is worth noting that for SW1271 cell plate, it needs to be incubated in an incubator without additional CO2).
(§2) On Day 0, Example 24 or A122 was added to each well using a Tecan HP D300E dispenser, with a 3-fold dilution across 9 doses. The final concentration of DMSO was normalized to 0.2%. The assay plate was then centrifuged at 1000 rpm for 1 minute and incubated for 7 days.
(§3) On Day 7, CellTiter-Glo (CTG) 3D reagent (Promega G9683) was dispensed into each well of a 384-well plate using a multi-drop dispenser (Thermo Scientific 66413). A liquid handling automation workstation (Bravo with a 384-well head) was used to mix the CTG reagents. Plates were left on a shaker for 30 minutes at 450 rpm, shielded from light.
(§4) For data analysis, the XL-fit software (Supplier: ID Business Solutions Ltd., Software version: XL fit 5.0) was utilized. The percentage of inhibition was calculated using the formula: Inhibition %=(Max-Sample value)/(Max-Min)×100. Curve fitting was performed as follows: For complete dose-response curves, the relative IC50 was reported from the fit. For incomplete curves, if minimal inhibition was greater than 50%, an IC50 less than the lowest compound concentration was reported. If minimal inhibition was between 20% and 50%, the bottom was locked at 0% and the IC50 was reported. If maximal inhibition was less than 50%, an IC50 greater than the highest compound concentration was reported.

[2] = system: Calu-6; conditions: Homo sapiens
Experimental: as §1, §2, §3, §4

[3] = system: CHP-212; conditions: Homo sapiens
Experimental: as §1, §2, §3, §4

[4] = system: HCT-116; conditions: Homo sapiens
Experimental: as §1, §2, §3, §4

[5] = system: MOLP8; conditions: Homo sapiens, MOLP-8
Experimental: as §1, §2, §3, §4

[6] = system: SKM-1; conditions: Homo sapiens
Experimental: as §1, §2, §3, §4

[7] = system: GA-10; conditions: Homo sapiens; GA-10, NRAS (p.G12V)
Experimental: as §1, §2, §3, §4

[8] = system: KYSE-30; conditions: Homo sapiens
Experimental: as §1, §2, §3, §4

[9] = system: RL95-2; conditions: Homo sapiens
Experimental: as §1, §2, §3, §4

[10] = system: NCI-H2030; conditions: Homo sapiens; NCI-H2030, KRAS (G12C)
Experimental: as §1, §2, §3, §4

[11] = system: ONS-76; conditions: Homo sapiens
Experimental: as §1, §2, §3, §4

[12] = system: NCI-H1299; conditions: Homo sapiens
Experimental: as §1, §2, §3, §4

[13] = system: NCI-H2291; conditions: Homo sapiens
Experimental: as §1, §2, §3, §4

[14] = system: SW 837; conditions: Homo sapiens, SW837; SW 837, KRAS (G12C)
Experimental: as §1, §2, §3, §4

[15] = system: SK-MEL-2; conditions: Homo sapiens
Experimental: as §1, §2, §3, §4

[16] = system: HCT-8; conditions: Homo sapiens
Experimental: as §1, §2, §3, §4

[17] = system: HPAC; conditions: Homo sapiens, KRAS (G12D)
Experimental: as §1, §2, §3, §4

[18] = system: NCI-H650; conditions: Homo sapiens
Experimental: as §1, §2, §3, §4

[19] = system: SNU-387; conditions: Homo sapiens
Experimental: as §1, §2, §3, §4

[20] = system: HCC-15; conditions: Homo sapiens, HCC15
Experimental: as §1, §2, §3, §4

[21] = system: NCI-H2087; conditions: Homo sapiens
Experimental: as §1, §2, §3, §4

[22] = system: NCI-H727; conditions: Homo sapiens; NCI-H727, KRAS (G12V)
Experimental: as §1, §2, §3, §4

[23] = system: HS 578T; conditions: Homo sapiens, HRAS (p.G12D)
Experimental: as §1, §2, §3, §4

[24] = system: Panc 02.13; conditions: Homo sapiens
Experimental: as §1, §2, §3, §4

[25] = system: PL-21; conditions: Homo sapiens
Experimental: as §1, §2, §3, §4

[26] = system: MKN-1; conditions: Homo sapiens; MKN-1, KRAS (WT ampl)
Experimental: as §1, §2, §3, §4

[27] = system: NCI-H1792; conditions: Homo sapiens; NCI-H1792, KRAS (G12C)
Experimental: as §1, §2, §3, §4

## CO[C@@H](C)c1ncc(N2CCN(C)CC2)cc1-c1c2c3cc(cc4c3n1CCC4)-c1csc(n1)C[C@H](NC(=O)[C@H]1[C@H](C)[C@@H]1C)C(=O)N1CCC[C@H](N1)C(=O)OCC(C)(C)C2 (atropisomer, axis not shown; (M)) [Example 24, (1r,2R,3S)-N-[(7S,13S)-(20M)-20-[2-[(1S)-1-methoxyethyl]-5-(4-methylpiperazin-1-yl)-3-pyridyl]-17,17-dimethyl-8,14-dioxo-15-oxa-4-thia-9,21,30,31-tetrazahexacyclo[23.3.1.1^2,5.1^9,13.0^19,27.0^21,26]hentriaconta-1 (28),2,5 (31), 19,25 (29),26-hexaen-7-yl]-2,3-dimethyl-cyclopropanecarboxamide]
[1]
  IC50: 0.46 nM
[2]; Calu-6, KRAS (Q61K), read-out: IC50
  IC50: 0.65 nM
[3]; CHP-212, NRAS (p.Q61K), read-out: IC50
  IC50: 0.35 nM
[4]; HCT-116, KRAS (G13D), read-out: IC50
  IC50: 1.9 nM
[5]; MOLP8, NRAS (p.Q61L), read-out: IC50
  IC50: 11 nM
[6]; SKM-1, KRAS (K117N), read-out: IC50
  IC50: 0.93 nM
[7]
  IC50: 1000 nM
[8]; KYSE-30, HRAS (p.Q61L), read-out: IC50
  IC50: 0.46 nM
[9]; RL95-2, HRAS (p.Q61H), read-out: IC50
  IC50: 1.3 nM
[10]
  IC50: 0.34 nM
[11]; ONS-76, NRAS (p.Q61R), read-out: IC50
  IC50: 0.9 nM
[12]; NCI-H1299, NRAS (p.Q61K), read-out: IC50
  IC50: 0.93 nM
[13]; NCI-H2291, KRAS (G12F), read-out: IC50
  IC50: 0.55 nM
[14]
  IC50: 0.22 nM
[15]; SK-MEL-2, NRAS (p.Q61R), read-out: IC50
  IC50: 2 nM
[16]; HCT-8, KRAS (G13D), read-out: IC50
  IC50: 80 nM
[17]
  IC50: 0.31 nM
[18]
  IC50: 2.3 nM
[19]; SNU-387, NRAS (p.Q61K), read-out: IC50
  IC50: 0.43 nM
[20]; HCC-15, NRAS (p.Q61K), read-out: IC50
  IC50: 0.68 nM
[21]; NCI-H2087, NRAS (p.Q61K), read-out: IC50
  IC50: 0.21 nM
[22]
  IC50: 0.14 nM
[23]
  IC50: 1.7 nM
[24]; Panc 02.13, KRAS (Q61R), read-out: IC50
  IC50: 4 nM
[25]; PL-21, KRAS (A146V), read-out: IC50
  IC50: 1 nM
[26]
  IC50: 28 nM
[27]
  IC50: 0.21 nM

## CCn1c(-c2cc(N3CCN(C)CC3)cnc2[C@H](C)OC)c2c3cc(ccc31)-c1csc(n1)C[C@H](NC(=O)[C@H]1C[C@@H]1C)C(=O)N1CCC[C@H](N1)C(=O)OCC(C)(C)O2 [Example A122, reference compound]
[1]
  IC50: 0.42 nM
[2]; Calu-6
  IC50: 1.3 nM
[3]; CHP-212
  IC50: 1.1 nM
[4]; HCT-116
  IC50: 1.9 nM
[5]
  IC50: 22 nM
[6]; SKM-1
  IC50: 1.3 nM
[7]
  IC50: 1000 nM
[8]; KYSE-30
  IC50: 1 nM
[9]; RL95-2
  IC50: 2.6 nM
[10]
  IC50: 0.56 nM
[11]; ONS-76
  IC50: 2.1 nM
[12]; NCI-H1299
  IC50: 1.5 nM
[13]; NCI-H2291
  IC50: 1 nM
[14]
  IC50: 0.67 nM
[15]; SK-MEL-2
  IC50: 3 nM
[16]; HCT-8
  IC50: 69 nM
[17]
  IC50: 0.3 nM
[18]
  IC50: 9.6 nM
[19]; SNU-387
  IC50: 1.1 nM
[20]
  IC50: 1.7 nM
[21]; NCI-H2087
  IC50: 0.44 nM
[22]
  IC50: 0.16 nM
[23]
  IC50: 3.1 nM
[24]
  IC50: 15 nM
[25]; PL-21
  IC50: 2.1 nM
[26]
  IC50: 40 nM
[27]
  IC50: 0.43 nM
